Residues, ends and D or L forms follow the SMILES beside them. *: point of attachment. Cbz = O=C(OCc1ccccc1)*
Biological target: T1, Purified proteasomes (Homo sapiens, UniProt P28074)
T1 construct: using this protocol active proteasomes are efficiently isolated from cells; endogenous in cells; immunoprecipitated with anti-α6 antibodies
Test: Proteasome activity-based assay with fluorogenic Suc-LLVY-Amc substrate
Assay type: biochemical
Details: fluorescent LLVY peptide substrate; FIG. 2
Procedure: Proteasome Activity-Based Assay.
Purified proteasomes were incubated with the fluorogenic substrate peptide Suc-LLVY-Amc (100 μM) in a reaction mixture containing 50 mM Hepes, pH 7.5, 1 mM DTT, 5 mM MgCl2, and 2 mM ATP. fluorescence of cleaved Amc was measured (excitation, 360 nm; emission, 470 nm).
A unique system of ‘Proteasomal Profiling’ was developed for the isolation of the active-degradome from the cell by purifying the proteasomal peptide pool, which represents proteins actively undergoing degradation at the time of experiment (FIG. 1). Proteasomal complexes were purified by immunoprecipitation using specific antibodies against the α6 subunit of the 20S core particle. To examine whether the catalytic activity of the proteasomes is retained during the purification procedures, an activity-based assay was performed using a fluorescent LLVY peptide substrate.

CC(C)C[C@@H](C=O)NC(=O)[C@H](CC(C)C)NC(=O)[C@H](CC(C)C)NC(=O)OCc1ccccc1 [MG132] (Cbz-Leu-Leu-Leu-aldehyde)
degradation of the LLVY substrate by purified proteasomes: sensitive

Source: patent publication US11035858B2, “Methods of isolating barrel-like proteases and identifying peptides processed thereby” (Yeda Research and Development Co. Ltd., priority 2016, dated 2021)
